# Measurements from US20260325541A1, “BENZGALANTAMINE FOR TREATING PERSISTENT POST-CONCUSSION SYMPTOMS” (Alpha Cognition Inc., priority 2023, published 2026).
# Where a name gives a salt, the structure may show the parent alone.
# What was measured:
# [1] = tested on: mice after repeated blast mild traumatic brain injury (blast mTBI); test: Thermal Gradient Ring (TGR) assessment of heat/pain sensitivity after repetitive blast mTBI; format: in vivo, C57Bl/6 mice; conditions: after one month of treatment, 3.0 mg/kg
# [2] = intra-nasal administration, similar doses; cited from earlier work
# [3] = Body weight / overt toxicity over the 35-day study; format: in vivo, male Wistar rats
# From the text: Young adult (2-3 months) male Wistar rats were subjected to a moderate TBI induced by controlled cortical impact (CCI). Animal models of TBI including the CCI model and functional tests have been described in detail in peer reviewed publications (Xiong et al., 2013, Nat Rev Neurosci.; Zhang et al., 2016, J Neurosurg.; Zhang et al., 2016, Neurochem Int.; Zhang et al., 2021, J Neurotrauma). Injury consisted of a single impact at 4.0 m/see, 2.5 mm deformation to the left parietal cortex. In addition, a group of animals was left healthy/not injured to serve as a healthy control.
# The animals were divided into 3 groups: • 1) TBI+Vehicle (purified water, n=10) • 2) TBI+ALPHA-1062 (4.5 mg/kg) (n=10) • 3) Healthy/not injured and not treated (Sham surgery) (n=10)
# The substance used in this study was ALPHA-1062 at 4.5 mg/kg. As control treatment (vehicle) purified water was administered intranasally (IN). The ALPHA-1062 and the control treatment were initiated 2 hours after injury and continued twice daily (with a 6-hour interval) for 35 consecutive days.
# Data were evaluated for normality applying the following statistical analyses: Data transformation was considered if the data was abnormal. The data was analyzed with GraphPad Prism Software 9.0. All data herein is presented as the mean±standard deviation (SD) and were analyzed with one-way analysis of variance (ANOVA) or two-way ANOVA (treatment x time) followed by post hoc Tukey's multiple comparison test (more than two groups). Differences between means are considered statistically significant when p is <0.05.
# [4] = tested on: patients with chronic TBI; conditions: oral, cited from earlier work; for adverse effects: chronic TBI patients; for TBI-related symptoms: patient reported, not placebo controlled
# [5] = tested on: all 5 organisms tested in the USP 51; test: USP 51 overall assessment against Category 2 criteria; format: cell-based; conditions: USP 51, Category 2 criteria, 14 and 28 days
# Method: (§1) As shown in WO2022236396A1, in order to assess the anti-microbial properties of ALPHA-1062, the USP (US Pharmacopeia) Chapter 51 Preservative Challenge Test (USP 51) was employed. The USP 51 is a common method used to gauge preservative effectiveness. Much like a Preservative Challenge Screen, it is used to evaluate the effect of preservatives in cosmetics, personal care products, and drug products. Preservatives are typically antimicrobial ingredients that are added to aqueous product formulations to help maintain the safety of the product by inhibiting the growth and reducing the number of microbial contaminants.
# In the context of the present invention, ALPHA-1062 (in the form of the gluconate salt) was assessed in place of (as) a preservative. No additional preservative was added to the ALPHA-1062 gluconate preparation, rather an anti-microbial effect of the agent itself (ALPHA-1062) was assessed. […]
# (§2) The initial concentration of viable microorganisms in each test preparation was estimated based on the concentration of microorganisms in each of the standardized inoculums, as determined by the plate-count method.
# The inoculated containers were incubated at 22.5±2.5 °C and each container was sampled at the appropriate intervals, as specified in Table 3. Any changes observed in the appearance of the culture was recorded at these intervals. […]
# [6] = tested on: P. aeruginosa ATCC 9027; test: USP 51 antimicrobial effectiveness test, P. aeruginosa; format: cell-based, Pseudomonas aeruginosa; conditions: for CFU/mL: initial 2.9 × 10^5 CFU/mL, 22.5±2.5 °C; for Log Reduction: initial log10 5.5
# Method: as §1
# (§3) In the context of the present invention, ALPHA-1062 (in the form of the gluconate salt) was assessed in place of (as) a preservative. No additional preservative was added to the ALPHA-1062 gluconate preparation, rather an anti-microbial effect of the agent itself (ALPHA-1062) was assessed. ALPHA-1062 is therefore the anti-microbial agent in the assay and experiments described below.
# (§4) The USP 51 challenge test utilizes 5 microorganisms (3 bacteria and 2 fungi) for challenge testing. Each of the microorganisms are known strains of pathogenic microorganisms and they represent a wide range of microbial physiologies.
# (§5) Cultures of the following microorganisms were applied, as per standard guidelines for USP 51: Candida albicans (ATCC No. 10231), Aspergillus brasiliensis (ATCC No. 16404), Escherichia coli (ATCC No. 8739), Pseudomonas aeruginosa (ATCC No. 9027), and Staphylococcus aureus (ATCC No. 6538). […]
# as §2
# (§6) The inoculated containers were incubated at 22.5±2.5 °C and each container was sampled at the appropriate intervals, as specified in Table 3. Any changes observed in the appearance of the culture was recorded at these intervals. By using the plate-count procedure, the number of CFU present in each test preparation was determined for the applicable intervals.
# (§7) An inactivator (neutralizer) of the specific antimicrobial was incorporated in the plate count or in the appropriate dilution prepared for plating. These conditions were determined in the validation study for that sample based upon the conditions of media and microbial recovery incubation times listed in Table 2. Using the calculated concentrations of CFU per mL present at the start of the test, the change in log 10 values of the concentration of CFU per mL for each microorganism was calculated at the applicable test intervals, and the changes were expressed in terms of log reductions.
# [7] = tested on: C. albicans ATCC 10231; test: USP 51 antimicrobial effectiveness test, C. albicans; format: cell-based, Candida albicans; conditions: for CFU/mL: initial 6.7 × 10^5 CFU/mL, 22.5±2.5 °C; for Log Reduction: initial log10 5.8
# Method: as §1, §3, §4, §5, §2, §6, §7
# [8] = tested on: E. coli ATCC 8739; test: USP 51 antimicrobial effectiveness test, E. coli; format: cell-based, Escherichia coli; conditions: for CFU/mL: initial 9.1 × 10^5 CFU/mL, 22.5±2.5 °C; for Log Reduction: initial log10 6.0
# Method: as §1, §3, §4, §5, §2, §6, §7
# [9] = tested on: A. brasiliensis ATCC 16404; test: USP 51 antimicrobial effectiveness test, A. brasiliensis; format: cell-based, Aspergillus brasiliensis; conditions: for CFU/mL: initial 2.2 × 10^5 CFU/mL, 22.5±2.5 °C; for Log Reduction: initial log10 5.3
# Method: as §1, §3, §4, §5, §2, §6, §7
# [10] = tested on: S. aureus ATCC 6538; test: USP 51 antimicrobial effectiveness test, S. aureus; format: cell-based, Staphylococcus aureus; conditions: for CFU/mL: initial 4.0 × 10^5 CFU/mL, 22.5±2.5 °C; for Log Reduction: initial log10 5.6
# Method: as §1, §3, §4, §5, §2, §6, §7
# [11] = Solid-state stability of Form A; format: physicochemical
# Method: As described therein, polymorphic studies were conducted with benzgalantamine utilizing a variety of solvents and crystallization conditions (Table 5 of WO 2022/150917) and subsequent XRPD analyses. Seven unique crystalline materials were observed and isolated, and were designated as Forms A, B, C, D and Materials E, F and G (FIG. 6 of WO 2022/150917). Amorphous material was also observed. Form A of benzgalantamine is an anhydrous crystalline material with concomitant melt/decomposition onset near 117 °C. […] Based upon WO 2022/150917, anhydrous Form A, stored under appropriate temperature and humidity conditions to maintain its Form and stability, appears best suited of the various benzgalantamine forms to be used in formulation and manufacture of drug products.
# As used herein, the term stable may relate to either chemical stability or to polymorph stability. Polymorph stability refers to the likelihood of a polymorph form remaining in its specific crystalline state under suitable storage conditions. For example, a stable polymorph form will maintain at least about 95% by weight, preferably at least about 98% by weight, and more preferably at least about 99% by weight or more of the crystalline form, in other words the form remains unchanged after storage under the indicated conditions for the indicated time.
# [12] = 43% RH (RT); from WO 2022/150917; cited from earlier work
structure (smiles),measurement,setting,value
"COc1ccc2c3c1O[C@H]1C[C@@H](OC(=O)c4ccccc4)C=C[C@@]31CCN(C)C2 [ALPHA-1062, (4aS,6R,8aS)-5,6,9,10,11,12-hexahydro-3-methoxy-11-methyl-4aH-[1]benzofuro[3a,3,2-ef][2]benzazepin-6-ol benzoate]",persistence of structural/functional benefit following removal of drug treatment,[1],at least 2 months
same,bioavailability in the brain vs oral galantamine,[2],"higher bioavailability in the brain, than similar doses of oral galantamine"
same,overt toxicity vs vehicle animals,"[3]; 35 days, 4.5 mg/kg IN twice daily",did not show overt toxicity
same,body weight change vs day zero,[3]; days 1-7 (D1-7),significant body weight loss (p<0.05)
same,body weight change vs day zero,[3]; days 29-35 (D29-35),significant body weight gain
same,body weight vs vehicle treated or untreated animals,"[3]; each time point D0-D35, 4.5 mg/kg IN twice daily, FIG. 10",no significant alterations in body weight compared to vehicle treated or untreated animals
COc1cc2c(cc1OC)C(=O)C(CC1CCN(Cc3ccccc3)CC1)C2 (centres unmarked) [donepezil],adverse effects,[4],about half of all patients experienced disturbing adverse effects
same,TBI-related symptoms,[4],subjective improvement of TBI-related symptoms
CCN(C)C(=O)Oc1cccc([C@H](C)N(C)C)c1 [rivastigmine],adverse effects,[4],about half of all patients experienced disturbing adverse effects
same,TBI-related symptoms,[4],subjective improvement of TBI-related symptoms
"COc1ccc2c3c1O[C@H]1C[C@@H](OC(=O)c4ccccc4)C=C[C@@]31CCN(C)C2 [ALPHA-1062 Gluconate, (4aS,6R,8aS)-4a,5,6,9,10,11,12-hexahydro-3-methoxy-11-methyl-6H-benzofuro[3a,3,2-ef][2]benzazepin-6-benzoate-gluconate salt]",anti-microbial effect,[5],strong anti-microbial effect against all 5 organisms tested in the USP 51
same,CFU/mL,[6]; Day 14,<10 CFU/mL
same,Log Reduction,[6]; Day 14,4.5 Log
same,CFU/mL,[6]; Day 28,<10 CFU/mL
same,Log Reduction,[6]; Day 28,4.5 Log
same,CFU/mL,[7]; Day 14,<10 CFU/mL
same,Log Reduction,[7]; Day 14,4.8 Log
same,CFU/mL,[7]; Day 28,<10 CFU/mL
same,Log Reduction,[7]; Day 28,4.8 Log
same,CFU/mL,[8]; Day 14,<10 CFU/mL
same,Log Reduction,[8]; Day 14,5.0 Log
same,CFU/mL,[8]; Day 28,<10 CFU/mL
same,Log Reduction,[8]; Day 28,5.0 Log
same,CFU/mL,[9]; Day 14,1.6 × 10^2 CFU/mL
same,Log Reduction,[9]; Day 14,3.1 Log
same,CFU/mL,[9]; Day 28,1.5 × 10^2 CFU/mL
same,Log Reduction,[9]; Day 28,3.1 Log
same,CFU/mL,[10]; Day 14,<10 CFU/mL
same,Log Reduction,[10]; Day 14,4.6 Log
same,CFU/mL,[10]; Day 28,<10 CFU/mL
same,Log Reduction,[10]; Day 28,4.6 Log
COc1ccc2c3c1O[C@H]1C[C@@H](OC(=O)c4ccccc4)C=C[C@@]31CCN(C)C2.O=C(O)C(O)C(O)C(O)C(O)CO [Form A],chemical stability,[11]; appropriate storage conditions,good chemical stability
same,polymorph stability on storage,"[11]; room temperature, at or under about 43% RH or less than 0.12 aw, multiple months",good stability
same,duration for which Form A was sustained,[12],up to 5 days
same,kinetic stability in the solid state,[12],kinetically stable in the solid state
